Data set [1] concerns MDA-MB-468 breast cancer xenografts. Briefly: MDA-MB-468 breast cancer xenograft, ADC with AZD5305. In kind it is in vivo, mice. The settings on record: AZD5305 individually, 0.1 mg/kg and 1 mg/kg, once daily oral, 28 days; FIG. 7. How it is done:
MDA-MB-468 cells were injected 5×10^6 per mouse into the mammary fat pad of female CB-17 SCID mice. […] Tumor and body weight measurements were recorded twice weekly for the duration of the study.
All animal experiments were conducted in a facility accredited by the Association for Assessment and Accreditation of Laboratory Animal Care under the guidelines of AstraZeneca's Institutional Animal Care and Use Committee and appropriate animal research approvals. Cell line xenograft models were established through subcutaneous implantation of cells in 50% Matrigel (Corning, Corning, NY, USA) in either the right mammary fat pad (MX-1, MDA-MB-468) or left flank (HT29, HT29-huB7-H4) of female CB-17 mice (Envigo, Frederick, MD, USA). When tumor volume reached 150-200 mm^3, mice were randomized and given a single intravenous (IV) injection of vehicle control (20 mM histidine, pH 6; 240 mM sucrose; 0.02% PS-80) or ADCs. Body weight and tumor measurements were determined once or twice weekly, and tumor volume was calculated with the formula

The conditions of data set [2]: preclinical models; cited from earlier work.

As to `CCc1cc2ncc(CN3CCN(c4ccc(C(=O)NC)nc4)CC3)cc2[nH]c1=O` [AZD5305, 5-[4-[(7-ethyl-6-oxo-5H-1,5-naphthyridin-3-yl)methyl]piperazin-1-yl]-N-methyl-pyridine-2-carboxamide], the “anti-tumor activity in vivo (tumor size over time)” value in data set [1] is listed as “little to no anti-tumor activity”. Besides, the “hematological toxicity in comparison with non-selective PARPi” value in data set [2] is reported as “reduced hematological toxicity”.

Source of the values: US20230310636A1, “COMBINATION THERAPIES FOR TREATMENT OF CANCER WITH THERAPEUTIC BINDING MOLECULES” (MedImmune Limited, priority 2022, published 2023).
